Earlier results as cited in US8871744B2, “Compounds and methods for selectively targeting tumor-associated mucins” (B & G Partyers, LLC, priority 2010, dated 2014).

Assays:
[1] = tested on: NMuMG cells; settings: NMuMG cells stimulated with TGF-β1
[2] = tested on: normal mammary epithelial cells
[3] = tested on: sialomucin complex/rat Muc4; settings: transfected MEC, activated in fetal calf serum

NC(=O)c1ccc(-c2nc(-c3ccc4c(c3)OCO4)c(-c3ccccn3)[nH]2)cc1 [SB431542, 4-[4-(1,3-benzodioxol-5-yl)-5-(2-pyridinyl)-1H-imidazol-2-yl]benzamide]
morphological changes associated with EMT [1]: inhibited
phosphorylation of Smad2 [1]: inhibited

CN[C@@H]1C[C@H]2O[C@@](C)([C@@H]1OC)n1c3ccccc3c3c4c(c5c6ccccc6n2c5c31)C(=O)NC4 [staurosporine]
epithelial to mesenchymal transition stimulated by TGF-β [2]: abrogated
Muc4 protein expression [3]: inhibited
